Laboratory results from patent US4360525A, “Dibenzazepine derivatives, pharmaceutical compositions containing them, and methods of use” (Sandoz Ltd., priority 1979, dated 1982).

How the values were obtained:
sleep/wake cycle = sleep/wake cycle in the rat (H. Kleinlogel); format: in vivo; details: 10 mg/kg p.o.
Description: Additionally, the compounds on administration to mice of from about 0.1 to about 10 mg/kg i.p. inhibit the hypermotility induced by 4,α-dimethyl-m-tyramine (H 77/77) in a test carried out according to the principles of J. Buus Lassen, Psychopharmacologia 37, 331-340 (1974). The compounds also increase the sleep phase II in the sleep/wake cycle in the rat carried out according to the principles of H. Kleinlogel et al, European J. Pharmacol. 33, 159-163, 1975, on administration of from […]. Results obtained are e.g. as follows:
Additionally the compounds of the invention are useful as sleep-inducing, sleep-promoting and sleep-prolonging agents, as indicated in standard tests. For example, in one test according to the principles of H. Kleinlogel, European J. Pharmacol. 33, 159-163 (1975) an increase in the sleep phase II and a decrease of the wake phase is observed after administration to rats of from 0.5 to 80 mg/kg p.o. animal body weight of the compounds.

[1] = tested on: spontaneous motor activity; assay: inhibition of spontaneous motor activity in mice (Caviezel and Baillod); format: in vivo; details: Mus musculus, po
Description: In particular, the compounds of the invention are useful as neuroleptic agents in the treatment of e.g. psychotic disturbances such as schizophrenia, as indicated in standard tests, e.g. by an inhibition of spontaneous motor activity in mice on p.o. administration of from about 1 to about 50 mg/kg animal body weight of the compounds in accordance with the principles of Caviezel and Baillod (Pharm. Acta Helv. (1958), 33, 465-484).

| Compound | Sleep phase II % of control (sleep/wake cycle) | ED50 [1] |
| --- | --- | --- |
| CN1CCN(C2=Nc3cc(Cl)ccc3Nc3ccccc32)CC1 [Clozapine] | 144 % of control |  |
| CN1CCC(N2Cc3cc(Cl)ccc3Sc3ccccc32)CC1 [Example 1, 2-Chloro-10-(1-methyl-piperidin-4-yl)-10,11-dihydro-dibenzo[b,f][1,4]thiazepine] | 131 % of control | 26 mg/kg |
| CSc1ccc2c(c1)N(CCC1CCCCN1C)c1ccccc1S2 (stereo not shown) [Thioridazine] |  | 26 mg/kg |
